In patent US20240116857A1 (St. Louis University, priority 2022, published 2024) one finds MIC data, which are given here for 26 molecules.

The subject of the first experiment is E. coli BW25113. Description: MIC, 2-fold broth dilution, E. coli BW25113. Particulars: Escherichia coli; E. coli BW25113; asterisk in column 1-10; read-out: MIC, μM 1-10. Format: cell-based, Escherichia coli.
Take `C[n+]1ccc(Nc2ccc(NC(=O)c3ccc(C(=O)Nc4ccc(Nc5cc[n+](C)cc5)cc4)c(Br)c3)cc2)cc1` [Example 87, 4,4′-((((2-bromoterephthaloyl)bis(azanediyl))bis(4,1-phenylene))bis(azanediyl))bis(1-methylpyridin-1-ium)]: the minimal inhibitory concentration (MIC) lay in the range of 1 to 10 µM.
For the molecule `C#CC[N+](C)(C)c1ccc(NC(=O)c2ccc(-c3ccc(C(=O)Nc4ccc([N+](C)(C)C)c(F)c4)cc3)cc2)cc1F` [Example 94, 4-(4′-((4-(dimethyl(prop-2-yn-1-yl)ammonio)-3-fluorophenyl)carbamoyl)-[1,1′-biphenyl]-4-carboxamido)-2-fluoro-N,N,N-trimethylbenzenaminium], the MIC lay within 1 to 10 µM.
Still for that read-out and setting: in the case of `C#CCCCCOc1cc(NC(=O)c2ccc(-c3ccc(C(=O)Nc4ccc([N+](C)(C)C)c(F)c4)cc3)cc2)ccc1[N+](C)(C)C` [Example 96, 2-fluoro-4-(4′-((3-(hex-5-yn-1-yloxy)-4-(trimethylammonio)phenyl)carbamoyl)-[1,1′-biphenyl]-4-carboxamido)-N,N,N-trimethylbenzenaminium] it was 1 to 10 µM; in that of `COc1cc(NC(=O)c2ccc(-c3ccc(C(=O)Nc4ccc([N+](C)(C)C)c(F)c4)cc3)cc2)ccc1[N+](C)(C)C` [Example 98, 2-fluoro-4-(4′-((3-methoxy-4-(trimethylammonio)phenyl)carbamoyl)-[1,1′-biphenyl]-4-carboxamido)-N,N,N-trimethylbenzenaminium], 1 to 10 µM.
On the same count and under the same terms, the result for `C#CCCOc1cc(NC(=O)c2ccc(-c3ccc(C(=O)Nc4ccc([N+](C)(C)C)c(F)c4)cc3)cc2)ccc1[N+](C)(C)C` [Example 103, 2-(but-3-yn-1-yloxy)-4-(4′-((3-fluoro-4-(trimethylammonio)phenyl)carbamoyl)-[1,1′-biphenyl]-4-carboxamido)-N,N,N-trimethylbenzenaminium] reads 1 to 10 µM.
Regarding `C#CCCCCCCCCOc1cc(NC(=O)c2ccc(-c3ccc(C(=O)Nc4ccc([N+](C)(C)C)c(F)c4)cc3)cc2)ccc1[N+](C)(C)C` [Example 116], the minimal inhibitory concentration (MIC) was 1 to 10 µM.

The same experiment, now with this note: Escherichia coli; E. coli BW25113; asterisk in column 10-50; read-out: MIC, μM 10-50.
On to `C[N+](C)(C)c1ccc(NC(=O)c2ccc(-c3ccc(C(=O)Nc4ccc([N+](C)(C)C)c(Br)c4)cc3)cc2)cc1Br` [Example 86, 4,4′-(([1,1′-biphenyl]-4,4′-dicarbonyl)bis(azanediyl))bis(2-bromo-N,N,N-trimethylbenzenaminium)], for which the MIC lay within 10 to 50 µM.
Still for that read-out and setting: the result for `C[n+]1ccc(Oc2ccc(NC(=O)c3ccc(C(=O)Nc4ccc(Oc5cc[n+](C)cc5)cc4)c(N)c3)cc2)cc1` [Example 89, 4,4′-((((2-aminoterephthaloyl)bis(azanediyl))bis(4,1-phenylene))bis(oxy))bis(1-methylpyridin-1-ium)] reads 10 to 50 µM.

Still in this experiment, the particulars now being: Escherichia coli; E. coli BW25113; asterisk in column >50; read-out: MIC, μM >50.
With `Cc1cc(C(=O)Nc2ccc(N(C)C)c(F)c2)ccc1-c1ccc(C(=O)Nc2ccc(N(C)C)c(F)c2)cc1` [Example 90, N^4,N^4′-bis(4-(dimethylamino)-3-fluorophenyl)-2-methyl-[1,1′-biphenyl]-4,4′-dicarboxamide], the MIC was > 50 µM.
On the same count and under the same terms, in the case of `Cc1cc(C(=O)Nc2ccc([N+](C)(C)C)c(F)c2)ccc1-c1ccc(C(=O)Nc2ccc([N+](C)(C)C)c(F)c2)cc1` [Example 91, 4,4′-((2-methyl-[1,1′-biphenyl]-4,4′-dicarbonyl)bis(azanediyl))bis(2-fluoro-N,N,N-trimethylbenzenaminium)] it was > 50 µM; in that of `O=C(NCc1ccncc1)c1ccc(-c2ccc(C(=O)NCc3ccncc3)cc2)cc1` [Example 92, N^4,N^4′-bis(pyridin-4-ylmethyl)-[1,1′-biphenyl]-4,4′-dicarboxamide], > 50 µM; in that of `C#CCN(C)c1ccc(NC(=O)c2ccc(-c3ccc(C(=O)Nc4ccc(N(C)C)c(F)c4)cc3)cc2)cc1F` [Example 93, N^4-(4-(dimethylamino)-3-fluorophenyl)-N^4′-(3-fluoro-4-(methyl(prop-2-yn-1-yl)amino)phenyl)-[1,1′-biphenyl]-4,4′-dicarboxamide], > 50 µM.
Same read-out and setting: in the case of `C#CCCCCOc1cc(NC(=O)c2ccc(-c3ccc(C(=O)Nc4ccc(N(C)C)c(F)c4)cc3)cc2)ccc1N(C)C` [Example 95, N^4-(4-(dimethylamino)-3-(hex-5-yn-1-yloxy)phenyl)-N^4′-(4-(dimethylamino)-3-fluorophenyl)-[1,1′-biphenyl]-4,4′-dicarboxamide] it was > 50 µM; in that of `COc1cc(NC(=O)c2ccc(-c3ccc(C(=O)Nc4ccc(N(C)C)c(F)c4)cc3)cc2)ccc1N(C)C` [Example 97, N^4-(4-(dimethylamino)-3-fluorophenyl)-N^4′-(4-(dimethylamino)-3-methoxyphenyl)-[1,1′-biphenyl]-4,4′-dicarboxamide], > 50 µM; in that of `C#CCCOc1cc(NC(=O)c2ccc(-c3ccc(C(=O)Nc4ccc(N(C)C)c(F)c4)cc3)cc2)ccc1N(C)C` [Example 99, N^4-(3-(but-3-yn-1-yloxy)-4-(dimethylamino)phenyl)-N^4′-(4-(dimethylamino)-3-fluorophenyl)-[1,1′-biphenyl]-4,4′-dicarboxamide], > 50 µM.
Still for that read-out and setting: the result for `C[n+]1ccc(CNC(=O)c2ccc(-c3ccc(C(=O)NCc4cc[n+](C)cc4)cc3)cc2)cc1` [Example 100, 4,4′-((([1,1′-biphenyl]-4,4′-dicarbonyl)bis(azanediyl))bis(methylene))bis(1-methylpyridin-1-ium)] reads > 50 µM.
`CN(C)c1ccc(CNC(=O)c2ccc(-c3ccc(C(=O)NCc4ccc(N(C)C)cc4)cc3)cc2)cc1` [Example 101, N^4,N^4′-bis(4-(dimethylamino)benzyl)-[1,1′-biphenyl]-4,4′-dicarboxamide]: the MIC is > 50 µM.
Same read-out and setting: in the case of `C[N+](C)(C)c1ccc(CNC(=O)c2ccc(-c3ccc(C(=O)NCc4ccc([N+](C)(C)C)cc4)cc3)cc2)cc1` [Example 102, 4,4′-((([1,1′-biphenyl]-4,4′-dicarbonyl)bis(azanediyl))bis(methylene))bis(N,N,N-trimethylbenzenaminium)] it was > 50 µM; in that of `C#CCN(C)c1ccc(NC(=O)c2ccc(-c3ccc(C(=O)Nc4ccc([N+](C)(C)C)c(F)c4)cc3)cc2)cc1F` [Example 104], > 50 µM.
Same read-out and setting: in the case of `COC(=O)Cn1cc(CCC[N+](C)(C)c2ccc(NC(=O)c3ccc(-c4ccc(C(=O)Nc5ccc([N+](C)(C)C)c(F)c5)cc4)cc3)cc2F)nn1` [Example 106] it was > 50 µM; in that of `COC(=O)Cn1cc(CCOc2cc(NC(=O)c3ccc(-c4ccc(C(=O)Nc5ccc([N+](C)(C)C)c(F)c5)cc4)cc3)ccc2[N+](C)(C)C)nn1` [Example 107], > 50 µM.
Same read-out and setting: in the case of `COC(=O)Cn1cc(C[N+](C)(C)c2ccc(NC(=O)c3ccc(-c4ccc(C(=O)Nc5ccc([N+](C)(C)C)c(F)c5)cc4)cc3)cc2F)nn1` [Example 108] it was > 50 µM; in that of `CN(C)c1ccc(NC(=O)c2ccc(-c3ccc(C(=O)Nc4ccc(N5CCCCC5)cc4)cc3)cc2)cc1F` [Example 111], > 50 µM.
In the case of `CN(C)c1ccc(NC(=O)c2ccc(-c3ccc(C(=O)Nc4ccc(N(C)C)c(F)c4)cc3)cc2)cc1` [Example 112], the MIC is > 50 µM.
Still for that read-out and setting: the result for `CN(C)c1ccc(NC(=O)c2ccc(-c3ccc(C(=O)Nc4ccc(N(C)C)c(F)c4)cc3C(F)(F)F)cc2)cc1F` [Example 114] reads > 50 µM.
On the same count and under the same terms, the result for `CN(C)c1ccc(NC(=O)c2ccc(-c3ccc(C(=O)Nc4ccc(N(C)C)c(Cl)c4)cc3)cc2)cc1F` [Example 115] reads > 50 µM.
